Source: paper PMC4710522, “A Novel Triazolopyridine-Based Spleen Tyrosine Kinase Inhibitor That Arrests Joint Inflammation” (PLoS ONE, 2016)

Key:
Experiment in all cases: SelectScreen kinase assay
Type in all cases: biochemical
Abl_G250E_h = target: T1, Abl_G250E_h (Homo sapiens, UniProt P00519, G250E); details: KM ATP, read-out: % control
T1 construct: purchased Life Technologies (Invitrogen) SelectScreen, Z'-LYTE / Adapta
Summary of the method: (§1)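 Z'-Lyte or Adapta format; compound fixed at 3 µM; ATP at KM, 10 µM or 100 µM as indicated; read-out % control relative to uninhibited DMSO wells.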

Axl_h = target: T2, Axl_h (Homo sapiens, UniProt P30530); details: KM ATP, read-out: % control
T2 construct: purchased Life Technologies (Invitrogen) SelectScreen, Z'-LYTE / Adapta
Summary of the method: as §1

CHK1_h = target: T3, CHK1_h (Homo sapiens, UniProt O14757); details: KM ATP, read-out: % control
T3 construct: purchased Life Technologies (Invitrogen) SelectScreen, Z'-LYTE / Adapta
Summary of the method: as §1

CK1-gamma2_h = target: T4, CK1-gamma2_h (Homo sapiens, UniProt P78368); details: KM ATP, read-out: % control
T4 construct: purchased Life Technologies (Invitrogen) SelectScreen, Z'-LYTE / Adapta
Summary of the method: as §1

CLK2_h = target: T5, CLK2_h (Homo sapiens, UniProt P49760); details: KM ATP, read-out: % control
T5 construct: purchased Life Technologies (Invitrogen) SelectScreen, Z'-LYTE / Adapta
Summary of the method: as §1

CSK_h = target: T6, CSK_h (Homo sapiens, UniProt P41240); details: KM ATP, read-out: % control
T6 construct: purchased Life Technologies (Invitrogen) SelectScreen, Z'-LYTE / Adapta
Summary of the method: as §1

CaMKII-alpha_h = target: T7, CaMKII-alpha_h (Homo sapiens, UniProt Q9UQM7); details: KM ATP, read-out: % control
T7 construct: purchased Life Technologies (Invitrogen) SelectScreen, Z'-LYTE / Adapta
Summary of the method: as §1

CaMKIV_h = target: T8, CaMKIV_h (Homo sapiens, UniProt Q16566); details: KM ATP, read-out: % control
T8 construct: purchased Life Technologies (Invitrogen) SelectScreen, Z'-LYTE / Adapta
Summary of the method: as §1

EphA1_h = target: T9, EphA1_h (Homo sapiens, UniProt P21709); details: KM ATP, read-out: % control
T9 construct: purchased Life Technologies (Invitrogen) SelectScreen, Z'-LYTE / Adapta
Summary of the method: as §1

EphA4_h = target: T10, EphA4_h (Homo sapiens, UniProt P54764); details: KM ATP, read-out: % control
T10 construct: purchased Life Technologies (Invitrogen) SelectScreen, Z'-LYTE / Adapta
Summary of the method: as §1

EphB4_h = target: T11, EphB4_h (Homo sapiens, UniProt P54760); details: KM ATP, read-out: % control
T11 construct: purchased Life Technologies (Invitrogen) SelectScreen, Z'-LYTE / Adapta
Summary of the method: as §1

FGFR3_h = target: T12, FGFR3_h (Homo sapiens, UniProt P22607); details: KM ATP, read-out: % control
T12 construct: purchased Life Technologies (Invitrogen) SelectScreen, Z'-LYTE / Adapta
Summary of the method: as §1

Fyn_h = target: T13, Fyn_h (Homo sapiens, UniProt P06241); details: KM ATP, read-out: % control
T13 construct: purchased Life Technologies (Invitrogen) SelectScreen, Z'-LYTE / Adapta
Summary of the method: as §1

HIPK2_h = target: T14, HIPK2_h (Homo sapiens, UniProt Q9H2X6); details: KM ATP, read-out: % control
T14 construct: purchased Life Technologies (Invitrogen) SelectScreen, Z'-LYTE / Adapta
Summary of the method: as §1

JAK2-JH1-JH2_V617F_h = target: T15, JAK2-JH1-JH2_V617F_h (Homo sapiens, UniProt O60674, V617F); details: KM ATP, read-out: % control
T15 construct: purchased Life Technologies (Invitrogen) SelectScreen, Z'-LYTE / Adapta
Summary of the method: as §1

JNK1-alpha1_h = target: T16, JNK1-alpha1_h (Homo sapiens, UniProt P45983); details: 100 µM ATP, read-out: % control
T16 construct: purchased Life Technologies (Invitrogen) SelectScreen, Z'-LYTE / Adapta
Summary of the method: as §1

Khs_1 = target: T17, Khs_1 (Homo sapiens, UniProt Q9Y4K4); details: KM ATP, read-out: % control
T17 construct: purchased Life Technologies (Invitrogen) SelectScreen, Z'-LYTE / Adapta
Summary of the method: as §1

LYN-B_h = target: T18, LYN-B_h (Homo sapiens, UniProt P07948); details: KM ATP, read-out: % control
T18 construct: purchased Life Technologies (Invitrogen) SelectScreen, Z'-LYTE / Adapta
Summary of the method: as §1

MAPK3_h = target: T19, MAPK3_h (Homo sapiens, UniProt P27361); details: KM ATP, read-out: % control
T19 construct: purchased Life Technologies (Invitrogen) SelectScreen, Z'-LYTE / Adapta
Summary of the method: as §1

MATK_h = target: T20, MATK_h (Homo sapiens, UniProt P42679); details: KM ATP, read-out: % control
T20 construct: purchased Life Technologies (Invitrogen) SelectScreen, Z'-LYTE / Adapta
Summary of the method: as §1

MEK1_h = target: T21, MEK1_h (Homo sapiens, UniProt Q02750); details: 100 µM ATP, read-out: % control
T21 construct: purchased Life Technologies (Invitrogen) SelectScreen, Z'-LYTE / Adapta
Summary of the method: as §1

MINK_h = target: T22, MINK_h (Homo sapiens, UniProt Q8N4C8); details: KM ATP, read-out: % control
T22 construct: purchased Life Technologies (Invitrogen) SelectScreen, Z'-LYTE / Adapta
Summary of the method: as §1

Mer_h = target: T23, Mer_h (Homo sapiens, UniProt Q12866); details: KM ATP, read-out: % control
T23 construct: purchased Life Technologies (Invitrogen) SelectScreen, Z'-LYTE / Adapta
Summary of the method: as §1

PAK2_h = target: T24, PAK2_h (Homo sapiens, UniProt Q13177); details: KM ATP, read-out: % control
T24 construct: purchased Life Technologies (Invitrogen) SelectScreen, Z'-LYTE / Adapta
Summary of the method: as §1

PDGFR-alpha_T674I_h = target: T25, PDGFR-alpha_T674I_h (Homo sapiens, UniProt P16234, T674I); details: KM ATP, read-out: % control
T25 construct: purchased Life Technologies (Invitrogen) SelectScreen, Z'-LYTE / Adapta
Summary of the method: as §1

PDGFR-alpha_V561D_h = target: T26, PDGFR-alpha_V561D_h (Homo sapiens, UniProt P16234, V561D); details: KM ATP, read-out: % control
T26 construct: purchased Life Technologies (Invitrogen) SelectScreen, Z'-LYTE / Adapta
Summary of the method: as §1

PKB-beta_h = target: T27, PKB-beta_h (Homo sapiens, UniProt P31751); details: KM ATP, read-out: % control
T27 construct: purchased Life Technologies (Invitrogen) SelectScreen, Z'-LYTE / Adapta
Summary of the method: as §1

Pim-1_h = target: T28, Pim-1_h (Homo sapiens, UniProt P11309); details: KM ATP, read-out: % control
T28 construct: purchased Life Technologies (Invitrogen) SelectScreen, Z'-LYTE / Adapta
Summary of the method: as §1

Plk3_h = target: T29, Plk3_h (Homo sapiens, UniProt Q9H4B4); details: KM ATP, read-out: % control
T29 construct: purchased Life Technologies (Invitrogen) SelectScreen, Z'-LYTE / Adapta
Summary of the method: as §1

Rsk3_h = target: T30, Rsk3_h (Homo sapiens, UniProt Q15349); details: KM ATP, read-out: % control
T30 construct: purchased Life Technologies (Invitrogen) SelectScreen, Z'-LYTE / Adapta
Summary of the method: as §1

SRPK1_h = target: T31, SRPK1_h (Homo sapiens, UniProt Q96SB4); details: KM ATP, read-out: % control
T31 construct: purchased Life Technologies (Invitrogen) SelectScreen, Z'-LYTE / Adapta
Summary of the method: as §1

TrkC_h = target: T32, TrkC_h (Homo sapiens, UniProt Q16288); details: KM ATP, read-out: % control
T32 construct: purchased Life Technologies (Invitrogen) SelectScreen, Z'-LYTE / Adapta
Summary of the method: as §1

cKit_T670I_h = target: T33, cKit_T670I_h (Homo sapiens, UniProt P10721, T670I); details: KM ATP, read-out: % control
T33 construct: purchased Life Technologies (Invitrogen) SelectScreen, Z'-LYTE / Adapta
Summary of the method: as §1

p38-beta_h = target: T34, p38-beta_h (Homo sapiens, UniProt Q15759); details: KM ATP, read-out: % control
T34 construct: purchased Life Technologies (Invitrogen) SelectScreen, Z'-LYTE / Adapta
Summary of the method: as §1

T21 sequence (Q02750 whole entry): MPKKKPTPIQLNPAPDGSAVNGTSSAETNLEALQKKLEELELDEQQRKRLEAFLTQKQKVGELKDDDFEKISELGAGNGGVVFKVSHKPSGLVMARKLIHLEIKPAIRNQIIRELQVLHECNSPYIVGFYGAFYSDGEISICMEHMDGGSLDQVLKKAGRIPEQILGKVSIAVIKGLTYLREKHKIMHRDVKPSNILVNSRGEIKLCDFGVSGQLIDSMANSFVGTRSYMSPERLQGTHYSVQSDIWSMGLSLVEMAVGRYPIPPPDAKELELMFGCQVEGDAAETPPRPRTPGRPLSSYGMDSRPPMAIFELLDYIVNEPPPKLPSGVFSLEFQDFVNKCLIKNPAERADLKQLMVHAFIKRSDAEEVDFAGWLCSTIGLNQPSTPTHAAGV
T5 sequence (P49760 whole entry): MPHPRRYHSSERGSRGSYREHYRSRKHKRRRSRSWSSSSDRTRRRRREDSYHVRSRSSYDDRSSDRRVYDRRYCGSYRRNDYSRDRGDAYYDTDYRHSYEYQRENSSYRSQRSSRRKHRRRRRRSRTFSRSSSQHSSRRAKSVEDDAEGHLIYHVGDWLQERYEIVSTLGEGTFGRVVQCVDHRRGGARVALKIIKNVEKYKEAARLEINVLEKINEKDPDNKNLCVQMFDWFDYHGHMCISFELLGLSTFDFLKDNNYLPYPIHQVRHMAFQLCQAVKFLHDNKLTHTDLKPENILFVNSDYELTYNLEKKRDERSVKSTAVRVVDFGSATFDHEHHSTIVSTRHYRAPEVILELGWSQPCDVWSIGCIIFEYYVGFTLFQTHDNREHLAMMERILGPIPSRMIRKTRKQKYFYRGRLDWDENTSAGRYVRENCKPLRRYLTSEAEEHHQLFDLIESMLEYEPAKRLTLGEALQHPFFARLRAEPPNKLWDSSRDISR
T32 sequence (Q16288 32-839): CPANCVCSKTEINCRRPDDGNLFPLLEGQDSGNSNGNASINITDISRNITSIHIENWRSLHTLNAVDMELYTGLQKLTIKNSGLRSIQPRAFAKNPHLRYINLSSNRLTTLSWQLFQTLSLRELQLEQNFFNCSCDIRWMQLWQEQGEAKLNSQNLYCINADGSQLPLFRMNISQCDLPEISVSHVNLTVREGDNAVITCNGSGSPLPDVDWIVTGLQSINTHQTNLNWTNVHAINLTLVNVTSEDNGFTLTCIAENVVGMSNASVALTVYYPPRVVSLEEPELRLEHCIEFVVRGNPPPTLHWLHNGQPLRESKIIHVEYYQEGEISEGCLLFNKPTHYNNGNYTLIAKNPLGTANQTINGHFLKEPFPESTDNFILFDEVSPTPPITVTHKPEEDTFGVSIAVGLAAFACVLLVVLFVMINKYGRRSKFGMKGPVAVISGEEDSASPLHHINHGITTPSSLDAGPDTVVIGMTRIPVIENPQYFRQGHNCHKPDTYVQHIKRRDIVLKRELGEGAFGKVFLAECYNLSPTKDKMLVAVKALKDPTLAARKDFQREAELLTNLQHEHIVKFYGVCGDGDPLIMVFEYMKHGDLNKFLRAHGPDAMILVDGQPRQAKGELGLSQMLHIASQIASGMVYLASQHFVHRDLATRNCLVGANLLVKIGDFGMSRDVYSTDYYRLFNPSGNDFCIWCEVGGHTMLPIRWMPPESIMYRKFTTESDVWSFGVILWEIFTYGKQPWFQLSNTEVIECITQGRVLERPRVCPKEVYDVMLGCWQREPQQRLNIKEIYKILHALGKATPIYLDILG
T11 sequence (P54760 16-987): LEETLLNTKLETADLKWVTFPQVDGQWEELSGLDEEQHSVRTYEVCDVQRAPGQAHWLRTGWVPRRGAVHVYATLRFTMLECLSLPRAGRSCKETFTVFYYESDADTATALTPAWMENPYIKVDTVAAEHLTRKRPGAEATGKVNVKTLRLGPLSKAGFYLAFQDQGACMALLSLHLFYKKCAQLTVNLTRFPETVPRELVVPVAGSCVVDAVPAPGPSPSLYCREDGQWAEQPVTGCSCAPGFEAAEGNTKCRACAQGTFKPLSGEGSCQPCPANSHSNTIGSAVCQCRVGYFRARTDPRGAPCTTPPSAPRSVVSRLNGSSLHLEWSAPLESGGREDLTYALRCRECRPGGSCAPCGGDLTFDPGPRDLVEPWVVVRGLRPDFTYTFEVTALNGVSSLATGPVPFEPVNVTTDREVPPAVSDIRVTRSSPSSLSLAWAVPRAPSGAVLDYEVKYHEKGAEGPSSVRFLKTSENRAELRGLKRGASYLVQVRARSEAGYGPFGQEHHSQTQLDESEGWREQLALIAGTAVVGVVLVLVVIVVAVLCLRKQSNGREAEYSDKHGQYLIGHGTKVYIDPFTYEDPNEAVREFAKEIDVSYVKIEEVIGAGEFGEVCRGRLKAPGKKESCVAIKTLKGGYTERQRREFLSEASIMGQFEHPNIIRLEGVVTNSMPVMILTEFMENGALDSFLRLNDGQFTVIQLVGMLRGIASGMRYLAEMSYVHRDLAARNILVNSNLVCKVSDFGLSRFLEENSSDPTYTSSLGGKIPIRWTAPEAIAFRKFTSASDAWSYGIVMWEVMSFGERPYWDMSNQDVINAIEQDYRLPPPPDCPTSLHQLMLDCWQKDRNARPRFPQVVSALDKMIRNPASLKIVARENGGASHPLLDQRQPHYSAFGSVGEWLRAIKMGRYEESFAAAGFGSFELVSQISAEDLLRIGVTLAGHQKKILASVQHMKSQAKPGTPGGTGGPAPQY
T28 sequence (P11309 whole entry): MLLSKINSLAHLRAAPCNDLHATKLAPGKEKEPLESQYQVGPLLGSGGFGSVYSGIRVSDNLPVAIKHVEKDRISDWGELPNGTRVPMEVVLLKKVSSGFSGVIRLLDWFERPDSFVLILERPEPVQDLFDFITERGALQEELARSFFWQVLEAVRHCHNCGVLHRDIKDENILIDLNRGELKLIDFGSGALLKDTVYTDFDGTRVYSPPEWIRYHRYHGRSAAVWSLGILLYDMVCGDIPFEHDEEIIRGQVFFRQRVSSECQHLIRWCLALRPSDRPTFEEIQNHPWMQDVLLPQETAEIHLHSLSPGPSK
T8 sequence (Q16566 whole entry): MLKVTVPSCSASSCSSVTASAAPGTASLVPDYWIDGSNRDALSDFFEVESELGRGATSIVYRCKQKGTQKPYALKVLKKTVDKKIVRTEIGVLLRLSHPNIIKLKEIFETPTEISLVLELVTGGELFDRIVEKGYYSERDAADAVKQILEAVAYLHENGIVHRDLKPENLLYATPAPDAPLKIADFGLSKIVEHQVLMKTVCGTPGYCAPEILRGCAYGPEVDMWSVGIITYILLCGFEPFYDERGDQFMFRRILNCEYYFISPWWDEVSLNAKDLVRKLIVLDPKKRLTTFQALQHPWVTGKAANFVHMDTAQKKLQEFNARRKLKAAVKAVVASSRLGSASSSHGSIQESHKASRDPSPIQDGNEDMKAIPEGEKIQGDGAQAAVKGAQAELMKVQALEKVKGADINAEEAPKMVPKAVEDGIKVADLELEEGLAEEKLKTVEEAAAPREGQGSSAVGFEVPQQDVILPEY
T4 sequence (P78368 whole entry): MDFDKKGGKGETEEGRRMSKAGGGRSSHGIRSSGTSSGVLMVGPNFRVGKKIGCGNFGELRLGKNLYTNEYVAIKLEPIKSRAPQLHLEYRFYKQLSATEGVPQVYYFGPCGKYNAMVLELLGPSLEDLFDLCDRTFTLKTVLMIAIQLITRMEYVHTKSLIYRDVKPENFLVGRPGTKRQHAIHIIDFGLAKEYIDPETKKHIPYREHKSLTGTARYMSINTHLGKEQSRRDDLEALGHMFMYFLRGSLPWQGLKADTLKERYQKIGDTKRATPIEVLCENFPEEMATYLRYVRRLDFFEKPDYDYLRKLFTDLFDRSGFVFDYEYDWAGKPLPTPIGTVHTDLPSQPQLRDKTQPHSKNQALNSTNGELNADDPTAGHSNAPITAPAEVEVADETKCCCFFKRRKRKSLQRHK
T23 sequence (Q12866 21-999): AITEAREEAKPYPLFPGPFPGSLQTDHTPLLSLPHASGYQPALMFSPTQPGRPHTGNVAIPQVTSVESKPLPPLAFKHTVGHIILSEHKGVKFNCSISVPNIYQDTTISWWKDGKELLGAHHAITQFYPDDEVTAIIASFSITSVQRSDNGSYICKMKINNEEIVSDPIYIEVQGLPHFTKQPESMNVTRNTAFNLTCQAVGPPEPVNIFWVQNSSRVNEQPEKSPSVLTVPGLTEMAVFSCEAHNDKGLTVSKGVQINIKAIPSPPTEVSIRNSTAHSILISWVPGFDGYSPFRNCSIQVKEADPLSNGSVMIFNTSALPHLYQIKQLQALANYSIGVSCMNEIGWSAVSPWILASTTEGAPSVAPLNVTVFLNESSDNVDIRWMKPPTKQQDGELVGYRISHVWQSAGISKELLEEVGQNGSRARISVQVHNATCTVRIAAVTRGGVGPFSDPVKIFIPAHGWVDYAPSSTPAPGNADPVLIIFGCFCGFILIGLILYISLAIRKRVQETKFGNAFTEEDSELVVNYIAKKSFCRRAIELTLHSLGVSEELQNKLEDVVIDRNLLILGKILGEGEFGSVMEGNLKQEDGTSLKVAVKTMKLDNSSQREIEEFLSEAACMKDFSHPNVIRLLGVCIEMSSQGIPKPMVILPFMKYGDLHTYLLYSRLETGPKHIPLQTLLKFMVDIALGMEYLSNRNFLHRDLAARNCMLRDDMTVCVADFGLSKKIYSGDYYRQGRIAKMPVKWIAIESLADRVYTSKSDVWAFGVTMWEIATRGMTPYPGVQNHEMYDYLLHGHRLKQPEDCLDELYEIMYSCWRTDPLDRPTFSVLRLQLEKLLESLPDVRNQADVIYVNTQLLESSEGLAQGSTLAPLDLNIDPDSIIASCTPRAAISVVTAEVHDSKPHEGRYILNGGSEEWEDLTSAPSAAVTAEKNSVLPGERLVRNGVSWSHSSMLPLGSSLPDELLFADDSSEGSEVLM

c1cc(CC2CCOCC2)n2nc(Nc3ccc4c(NC5CCOCC5)n[nH]c4c3)nc2c1 [CC-509, [3-(2H-3,4,5,6-tetrahydropyran-4-ylamino)(1H-indazol-6-yl)][5-(2H-3,4,5,6-tetrahydropyran-4-ylmethyl)(2H-1,2,4-triazolo[1,5-a]pyridin-2-yl)]amine]
remaining activity at 3 µM (Abl_G250E_h): 29% | remaining activity at 3 µM (Axl_h): 70% | remaining activity at 3 µM (CHK1_h): 94% | remaining activity at 3 µM (CK1-gamma2_h): 68% | remaining activity at 3 µM (CLK2_h): 50% | remaining activity at 3 µM (CSK_h): 70% | remaining activity at 3 µM (CaMKII-alpha_h): 80% | remaining activity at 3 µM (CaMKIV_h): 100% | remaining activity at 3 µM (EphA1_h): 21% | remaining activity at 3 µM (EphA4_h): 76% | remaining activity at 3 µM (EphB4_h): 87% | remaining activity at 3 µM (FGFR3_h): 68% | remaining activity at 3 µM (Fyn_h): 74% | remaining activity at 3 µM (HIPK2_h): 96% | remaining activity at 3 µM (JAK2-JH1-JH2_V617F_h): 8% | remaining activity at 3 µM (JNK1-alpha1_h): 88% | remaining activity at 3 µM (Khs_1): 81% | remaining activity at 3 µM (LYN-B_h): 39% | remaining activity at 3 µM (MAPK3_h): 90% | remaining activity at 3 µM (MATK_h): 102% | remaining activity at 3 µM (MEK1_h): 65% | remaining activity at 3 µM (MINK_h): 55% | remaining activity at 3 µM (Mer_h): 90% | remaining activity at 3 µM (PAK2_h): 85% | remaining activity at 3 µM (PDGFR-alpha_T674I_h): 80% | remaining activity at 3 µM (PDGFR-alpha_V561D_h): 0% | remaining activity at 3 µM (PKB-beta_h): 98% | remaining activity at 3 µM (Pim-1_h): 101% | remaining activity at 3 µM (Plk3_h): 88% | remaining activity at 3 µM (Rsk3_h): 33% | remaining activity at 3 µM (SRPK1_h): 98% | remaining activity at 3 µM (TrkC_h): 25% | remaining activity at 3 µM (cKit_T670I_h): 83% | remaining activity at 3 µM (p38-beta_h): 84%
